Values of other authors in patent publication US20060073224A1, “Method of preparing Dioscorea tincture and uses thereof” (Omni Research Technology, priority 2004, published 2006).

Details: purified crystalline powder

## C[C@@H]1CC[C@@]2(OC1)O[C@H]1C[C@H]3[C@@H]4CC=C5C[C@@H](O)CC[C@]5(C)[C@H]4CC[C@]3(C)[C@H]1[C@@H]2C [diosgenin]
  insolubility in alcohol: about 0.2%
